Source: patent US12509474B2, “Inhibitors of complement factors and uses thereof” (Annexon, Inc., priority 2020, dated 2025)
Structures can show the parent of a compound that is named as a salt.

target: T1, human C1s protein (Homo sapiens, UniProt P09871); assay: C1s enzymatic assay (hydrolysis of YLGR-Rh110-dPro); assay type: biochemical; details: substrate YLGR-Rh110-dPro 20 μM, 15 min pre-incubation, 60 min RT, fluorescence
T1 construct: A104
T1 sequence (P09871 16-688): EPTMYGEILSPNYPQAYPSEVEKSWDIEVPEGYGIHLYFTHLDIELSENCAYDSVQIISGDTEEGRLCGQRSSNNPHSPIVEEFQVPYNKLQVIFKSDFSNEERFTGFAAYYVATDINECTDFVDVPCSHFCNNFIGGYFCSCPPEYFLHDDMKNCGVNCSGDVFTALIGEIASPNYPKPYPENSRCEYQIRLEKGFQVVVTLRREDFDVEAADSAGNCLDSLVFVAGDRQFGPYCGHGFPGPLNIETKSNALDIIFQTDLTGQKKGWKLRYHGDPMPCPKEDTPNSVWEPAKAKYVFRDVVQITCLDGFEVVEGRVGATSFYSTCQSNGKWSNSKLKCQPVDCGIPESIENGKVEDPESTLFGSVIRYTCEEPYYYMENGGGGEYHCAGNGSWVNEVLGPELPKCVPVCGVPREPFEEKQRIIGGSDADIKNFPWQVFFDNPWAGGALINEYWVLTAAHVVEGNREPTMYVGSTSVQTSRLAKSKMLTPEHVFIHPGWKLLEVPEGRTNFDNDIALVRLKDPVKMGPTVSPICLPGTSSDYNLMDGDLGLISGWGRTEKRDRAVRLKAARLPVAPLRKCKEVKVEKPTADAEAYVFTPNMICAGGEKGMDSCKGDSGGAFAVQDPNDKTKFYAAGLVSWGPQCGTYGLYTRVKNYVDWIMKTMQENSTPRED
Method: Compound Testing in the C1s Enzymatic Assay
The enzyme cleaves the substrate with the release of Rh110 which is highly fluorescent. C1s inhibitors prevent the hydrolysis of the substrate thus resulting in a decrease of the signal.
On the day of the experiment 0.1 mg/mL BSA (Sigma, B4287) is added fresh to the buffer. The test item stock solutions are serially diluted 1:3 or 1:4 or 1:5 with DMSO, 11-point curves, in a 384-well compound plate. Nafamostat concentration curve is always included in the assay plate as a reference control.
The high controls are prepared dispensing in 0.25 μL DMSO in column 23, rows AH or AP and low controls with 0.25 μL of 0.1 M Nafamostat. […] The YLGR-Rh110-dPro substrate is prepared as 2× of the final assay concentration of 20 μM. 1/well of 2× enzyme solution is dispensed and pre-incubated for 15 min with the compounds. The enzymatic reaction is then started with 5 μL/well of the 2× substrate solution.

Compound	hC1s pIC50
7-(1-hydroxy-3-prop-2-enyl-3,4-dihydro-2,1-benzoxazonin-7-yl)cinnolin-4-amine [Example 148]	8.64
7-(3-cyclopropyl-1-hydroxy-3,4-dihydro-2,1-benzoxazonin-7-yl)cinnolin-4-amine [Example 147]	8.38

same assay, conditions: substrate YLGR-Rh110-dPro 20 μM, 15 min pre-incubation, 60 min RT, fluorescence, read-out: hC1s pIC50 (converted)

Compound	IC50 [nM]
Cc1nnc(N)c2ccc(-c3ccc4c(c3)B(O)OC(C)C4)cc12 (single isomer, unassigned) [Example 72, 6-(1-hydroxy-3-methyl-3,4-dihydro-2,1-benzoxazonin-7-yl)-4-methylphthalazin-1-amine]	1.02
Cc1nnc(N)c2ccc(-c3ccc4c(c3)B(O)OC(C)C4)cc12 (single isomer, unassigned) [Example 73, 6-(1-hydroxy-3-methyl-3,4-dihydro-2,1-benzoxazonin-7-yl)-4-methylphthalazin-1-amine]	0.912
CC1Cc2ccc(-c3ccc4c(N)cnnc4c3)cc2B(O)O1 (single isomer, unassigned) [Example 94]	1.91
CC1Cc2ccc(-c3ccc4c(N)cnnc4c3)cc2B(O)O1 (single isomer, unassigned) [Example 95]	3.55
CC(C)C1Cc2ccc(-c3ccc4c(N)cnnc4c3)cc2B(O)O1 (single isomer, unassigned) [Example 152]	3.09
CC(C)C1Cc2ccc(-c3ccc4c(N)cnnc4c3)cc2B(O)O1 (single isomer, unassigned) [Example 153]	1.66
Nc1cnnc2cc(-c3cc(B(O)O)ccc3OCC3CNC(=O)C3)ccc12 (single isomer, unassigned) [Example 154, [3-(4-aminocinnolin-7-yl)-4-[(5-oxopyrrolidin-3-yl)methoxy]phenyl]boronic Acid]	1.78
Nc1cnnc2cc(-c3cc(B(O)O)ccc3OCC3CNC(=O)C3)ccc12 (single isomer, unassigned) [Example 155, [3-(4-aminocinnolin-7-yl)-4-[(5-oxopyrrolidin-3-yl)methoxy]phenyl]boronic Acid]	3.89
Cc1nnc(N)c2ccc(-c3cc(B(O)O)ccc3NC(=O)C3CC(F)(F)CN3)cc12 (stereo in doubt) [Example 81, [3-(1-amino-4-methylphthalazin-6-yl)-4-[[(2S)-4,4-difluoropyrrolidine-2-carbonyl]amino]phenyl]boronic Acid]	4.57
Nc1nncc2cc(-c3cccc(B(O)O)c3)ccc12 [Example 1, [3-(1-aminophthalazine-6-yl)phenyl]boronic Acid]	1.17
COc1ccc(B(O)O)cc1-c1ccc2c(N)nncc2c1 [Example 2, [3-(1-aminophthalazin-6-yl)-4-methoxyphenyl]boronic Acid Formic Acid Salt]	6.31
Cc1nnc(N)c2ccc(-c3cccc(B(O)O)c3)cc12 [Example 4, [3-(1-amino-4-methylphthalazin-6-yl)phenyl]boronic Acid]	1.51
COc1ccc(B(O)O)cc1-c1ccc2c(N)cnnc2c1 [Example 5, [3-(4-aminocinnolin-7-yl)-4-methoxyphenyl]boronic Acid]	0.589
COc1ccc(B(O)O)cc1-c1ccc2c(N)nnc(C)c2c1 [Example 7, [3-(1-amino-4-methylphthalazin-6-yl)-4-methoxyphenyl]boronic Acid Formic Acid Salt]	0.891
COCCOCCOCCOCCOCCOCCOc1ccc(B(O)O)cc1-c1ccc2c(N)cnnc2c1 [Example 8, [3-(4-aminocinnolin-7-yl)-4-[2-[2-[2-[2-[2-(2-methoxyethoxy)ethoxy]ethoxy]ethoxy]ethoxy]ethoxy]phenyl]boronic Acid]	3.09
CC(C)c1nnc(N)c2ccc(-c3cccc(B(O)O)c3)cc12 [Example 9, [3-(1-amino-4-propan-2-ylphthalazin-6-yl)phenyl]boronic Acid Hydrochloric Acid Salt]	513
Cc1ccc(B(O)O)cc1-c1ccc2c(N)nnc(C)c2c1 [Example 10, [3-(1-amino-4-methylphthalazin-6-yl)-4-methylphenyl]boronic Acid Formic Acid Salt]	6.92
Nc1nnc(C2CC2)c2cc(-c3cccc(B(O)O)c3)ccc12 [Example 11, [3-(1-amino-4-cyclopropylphthalazin-6-yl)phenyl]boronic Acid Formic Acid Salt]	214

Compound	IC50 [nM]
CCc1ccc(B(O)O)cc1-c1ccc2c(N)nnc(C)c2c1 [Example 12, [3-(1-amino-4-methylphthalazin-6-yl)-4-ethylphenyl]boronic Acid Formic Acid Salt]	8.13
Cc1cc2cc(-c3cccc(B(O)O)c3)ccc2c(N)n1 [Example 13, [3-(1-amino-3-methylisoquinolin-6-yl)phenyl]boronic Acid; Trifluoroacetic Acid Salt]	37.2
Cc1nnc(N)c2ccc(-c3ccc4c(c3)B(O)OC4)cc12 [Example 14, 6-(1-hydroxy-3H-2,1-benzoxaborol-6-yl)-4-methylphthalazin-1-amine Formic Acid Salt]	14.1
Cc1nnc(N)c2ccc(-c3cc(B(O)O)ccc3OC(F)(F)F)cc12 [Example 15, [3-(1-amino-4-methylphthalazin-6-yl)-4-(trifluoromethoxy)phenyl]boronic Acid]	1.7
COCCOCCOCCOCCOCCOCCOc1ccc(B(O)O)cc1-c1ccc2c(N)nnc(C)c2c1 [Example 16, [3-(1-amino-4-methylphthalazin-6-yl)-4-[2-[2-[2-[2-[2-(2-methoxyethoxy)ethoxy]ethoxy]ethoxy]ethoxy]ethoxy]phenyl]boronic Acid]	4.79
Cc1nnc(N)c2ccc(-c3cncc(B(O)O)c3)cc12 [Example 17, [5-(1-amino-4-methylphthalazin-6-yl)pyridin-3-yl]boronic Acid]	1.74
Nc1nncc2cc(-c3cc(B(O)O)ccc3NC(=O)c3ccccc3Cl)ccc12 [Example 18, [3-(1-aminophthalazin-6-yl)-4-[(2-chlorobenzoyl)amino]phenyl]boronic Acid Formic Acid Salt]	5.5
Cc1nnc(N)c2ccc(-c3cc(B(O)O)ccc3F)cc12 [Example 19, [3-(1-amino-4-methylphthalazin-6-yl)-4-fluorophenyl]boronic acid formic acid salt]	1.35
COc1cc2c(cc1-c1ccc3c(N)nnc(C)c3c1)B(O)OC2 [Example 20, 6-(1-hydroxy-5-methoxy-3H-2,1-benzoxaborol-6-yl)-4-methylphthalazin-1-amine]	10
COc1ccc(B(O)O)cc1-c1ccc2c(N)nc(C)cc2c1 [Example 22, [3-(1-amino-3-methylisoquinolin-6-yl)-4-methoxyphenyl]boronic Acid]	269
Cc1nnc(N)c2ccc(-n3cc(B(O)O)cn3)cc12 [Example 23, [1-(1-amino-4-methylphthalazin-6-yl)pyrazol-4-yl]boronic Acid]	363
COc1cc(F)c(B(O)O)cc1-c1ccc2c(N)nnc(C)c2c1 [Example 25, [5-(1-amino-4-methylphthalazin-6-yl)-2-fluoro-4-methoxyphenyl]boronic Acid]	1.7
Cc1nnc(N)c2ccc(-c3ccc4c(c3)B(O)OCC4)cc12 [Example 26, Formic Acid Salt]	2.19
COc1cc(C)c(B(O)O)cc1-c1ccc2c(N)nnc(C)c2c1 [Example 28, [5-(1-amino-4-methylphthalazin-6-yl)-4-methoxy-2-methylphenyl]boronic Acid Formic Acid Salt]	1.78
Cc1nnc(N)c2ccc(-c3cc(B(O)O)ccc3C#N)cc12 [Example 29, [3-(1-amino-4-methylphthalazin-6-yl)-4-cyanophenyl]boronic Acid]	1.91
COc1ncc(B(O)O)cc1-c1ccc2c(N)nnc(C)c2c1 [Example 30, [5-(1-amino-4-methylphthalazin-6-yl)-6-methoxypyridin-3-yl]boronic Acid]	2.04
COc1ccc(B(O)O)cc1-c1cc(F)c2c(N)cnnc2c1 [Example 31, [3-(4-amino-5-fluorocinnoline-7-yl)-4-methoxyphenyl]boronic Acid]	15.1
COc1cc2c(cc1-c1ccc3c(N)nnc(C)c3c1)B(O)OCC2 [Example 32, 6-(1-hydroxy-6-methoxy-3,4-dihydro-2,1-benzoxazonin-7-yl)-4-methylphthalazin-1-amine Formic Acid Salt]	4.68
